Experimental data taken from EPA's ToxValDB 9.5 (doi:10.2903/j.efsa.2006.83r).
In brackets after ≈: the same amount, converted by molar mass. Several values for one entry are separate records, joined by “and”; a condition that tells them apart may be missing. Equal entries are not always repeated.

Legend:
[1] = test system: Tagia sp.; settings: acute; duration: 14 days; mortality
[2] = test system: Anas platyrhynchos
[3] = test system: Pimephales promelas; settings: chronic/long-term
[4] = test system: Lepomis macrochirus; settings: acute; duration: 96 hours; mortality
[5] = test system: Daphnia magna; settings: chronic/long-term; duration: 21 days
[6] = test system: Rattus norvegicus; settings: acute; oral; gavage; M/F; clinical chemistry
[7] = test system: Apis mellifera; settings: acute; duration: 48 hours; dermal; mortality
[8] = test system: Colinus virginianus
[9] = test system: Aphidius rhopalosiphi; assay: LR50; higher = less toxic; settings: acute; duration: 48 hours; mortality

CNC(=O)ON=C(C)SC [Methomyl]
LC50 [1]: 19 mg/kg
NOEC ([2]; reproductive): 150 mg/kg
LC50 ([2]; short-term, oral, feed, mortality): 3950 mg/kg
NOEC [3]: 0.073 mg/L
LC50 [4]: 0.63 µg/mL (≈ 3.88 µM)
NOEC [5]: 0.0016 mg/L
LD50 (acute, oral, unspecified, mortality): 30 mg/kg
NOAEL (reproductive, development): 75 mg/kg
NOAEL [6]: 0.25 mg/kg-day
LD50 [7]: 0.16 µg/piece
LD50 ([8]; acute, oral, mortality): 24.2 mg/kg and 30.4 mg/kg
NOEC ([8]; reproduction developmental): 150 mg/kg-day
LR50 [9]: 0.25 g/ha
